Results on five molecules are retold here after paper PMC5443783, “Prostaglandin E2 glyceryl ester is an endogenous agonist of the nucleotide receptor P2Y6” (Scientific Reports, 2017).

Numbered stars: 1 amine (or outer) side, 2 acyl side, 3 side chain; on linkers, the order of the positions; unused ones are H or OH. Bridge positions count the residues as written; N and C are the ends. Square brackets hold non-standard residues; d marks the D form. Peptide text beside a SMILES is read from it. * marks the point of attachment. Leu(3R-OH,Nα-propionyl) = CCC(=O)N[C@H](C(=O)*)[C@H](O)C(C)C; X1 = CC(C)[C@@H](O[*:3])[C@H](N[*:1])C(=O)[*:2]; NMeT = CN[C@H](C(=O)O)[C@@H](C)O; dPhLac = O=C(O)[C@H](O)Cc1ccccc1; NMeA = CN[C@@H](C)C(=O)O; NMeDha = C=C(NC)C(=O)O

One assay relates to RAW264.7 cells. The following applies: RAW264.7 cells; cited from earlier work.
In assay [1] the target is T1, P2Y6 (Homo sapiens, UniProt Q15077). Nature of the assay: ERK1/2 phosphorylation (AlphaScreen SureFire) in P2RY6-transfected HEK293 cells. The format is cell-based. Also noted: expressed in transfected cells; host or cells: HEK293. The following applies: HEK293 cells stably transfected with P2RY6, Fig. 3e. The procedure: Cells were transferred to serum-free medium 2 h prior to assay. Ligands and controls (10 µl of 10× concentrates) were added to 90 µl medium and incubated for 5 min at 37 °C. The final concentration of DMSO was 0.2%. The reaction was stopped by aspiration of the medium and addition of 50 µl lysis buffer (PerkinElmer Life Sciences). To measure ERK1/2 phosphorylation, the AlphaScreen® SureFire ERK 1/2 assay kit (PerkinElmer Life Sciences) was used with the high sensitivity protocol. Phosphorylated ERK1/2 was measured in 384-well white OptiPlate microplates (PerkinElmer Life Sciences) with the Fusion AlphaScreen multilabel reader (PerkinElmer Life Sciences).
T1 sequence (Q15077 whole entry): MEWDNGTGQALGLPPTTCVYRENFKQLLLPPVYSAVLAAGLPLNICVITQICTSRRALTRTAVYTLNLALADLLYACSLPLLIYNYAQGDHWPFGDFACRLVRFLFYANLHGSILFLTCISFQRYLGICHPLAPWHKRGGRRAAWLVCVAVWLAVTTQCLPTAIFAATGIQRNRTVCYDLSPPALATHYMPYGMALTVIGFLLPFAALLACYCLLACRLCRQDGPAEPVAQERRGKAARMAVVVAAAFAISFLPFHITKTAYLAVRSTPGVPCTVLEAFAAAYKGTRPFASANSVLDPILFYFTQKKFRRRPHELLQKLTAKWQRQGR
On the technique in general: Bead proximity is the source of the signal in Alpha formats.

The target of assay [2] is T1, P2Y6. Nature of the assay: IP1 accumulation assay in HEK293 cells transfected with wildtype P2RY6. The following applies: IP1 accumulation, P2RY6-transfected HEK293, Fig. 3d. The format is cell-based. Also noted: expressed in transfected cells; host or cells: HEK293. The method, then:
To measure intracellular IP3 the HitHunter® Inositol (1,4,5) Triphosphate Assay (DiscoveRx, USA) was used according to manufacturer′s protocol. HEK293 cells stably transfected with hP2RY6 were seeded in a 384-well Black microtiter plate (15,000 cells/well) (Greiner Bio One, Germany) and incubated with indicated concentrations of UDP and PGE2-G for 20 seconds. Reaction was stopped by adding 5 µl 0.2 N perchloric acid and measurement of IP3 was performed with the Fusion AlphaScreen multilabel reader (PerkinElmer Life Sciences) according to manufacturer′s protocol. To measure IP1, HEK293 cells expressing wildtype and mutant P2Y6 were seeded into 384-well plates (5,000 cells/well) 24 h prior assay. After aspiration of the medium, cells were incubated with indicated concentrations of agonists/antagonist for 1 h. IP1 measurements using the IP-one HTFR® assay kit (Cisbio assays, USA) were performed according to manufacturer′s protocol. The assays were performed with a final concentration of 1% DMSO.

With `CCCCC[C@H](O)/C=C/[C@H]1C(=O)C[C@H](O)[C@@H]1C/C=C\CCCC(=O)OC(CO)CO` [PGD2-G], the “effect in Ca2+ measurements” value with RAW264.7 cells is “no effect”.
Consider `CCCCC[C@H](O)/C=C/[C@H]1[C@H](O)CC(=O)[C@@H]1C/C=C\CCCC(=O)O` [PGE2], for which, in the assay on RAW264.7 cells, the “effect in Ca2+ measurements” value is given as “no effect”. The ERK1/2 phosphorylation response entry on P2Y6 [1] is reported as “no response”.
As to `C=C1C(=O)N[C@@H](C)C(=O)N(C)[C@@H](C)C(=O)N[C@@H]([C@H](OC(=O)[C@@H](NC(=O)CC)[C@H](O)C(C)C)C(C)C)C(=O)N(C)[C@@H]([C@@H](C)OC)C(=O)O[C@H](C(C)C)[C@H](NC(C)=O)C(=O)O[C@H](Cc2ccccc2)C(=O)N1C` [UBO] (Ac-[X1][dPhLac][NMeDha]A[NMeA][X1](Leu(3R-OH,Nα-propionyl))[NMeT](Me); ester 1-C), the “block of IP formation after stimulation with UDP and PGE2-G” value on P2Y6 [2] is given as “significantly block”.
`CCCCC[C@H](O)/C=C/[C@@H]1[C@@H](C/C=C\CCCC(=O)O)[C@@H](O)C[C@H]1O` [PGF2α]: the “effect in Ca2+ measurements” value with RAW264.7 cells was “led to Ca^2+ release”. Further, at P2Y6 [1], the ERK1/2 phosphorylation response result is on record as “no effect”.
As to `CCCCC[C@H](O)/C=C/[C@@H]1[C@@H](C/C=C\CCCC(=O)OC(CO)CO)[C@@H](O)C[C@H]1O` [PGF2α-G], in the assay on RAW264.7 cells, the “effect in Ca2+ measurements” value is given as “no effect”. Moreover, at P2Y6 [1], the ERK1/2 phosphorylation response entry is reported as “no response”.
